Test results: US20060153906A1, “Pharmaceutical product for endonasal administration for treating central nervous system disease and disorders” (priority 2002, published 2006)
Where two headings read alike, the source gives them in different places.

How the values were obtained:
white male rats = test: Food motivation in partially food-deprived rats, endonasal administration; assay type: in vivo, rat
Excerpt: The experiments where carried out with white male rats. The animals of the control group 1 (n=13) received distilled water, the animals of the control group 2 (n=7) received a glucose solution, and the animals of the experimental group (n=9) received the composition H2O2+glucose. The duration of the observation was 17 days. During the first 11 days, the animals where controllably partially deprived of food (20 g dry mixed feed per animal). During the first week of the experiment, the initial motivation level for food was evaluated in the absence of the investigated preparation. The following parameters were investigated:
Latent period (LP) between the approach to the food and presentation of the food in seconds;
Time for consuming the food, in seconds (Tfut.);
Number of interruptions during food uptake (Ubr.)
After the second week, without changing the feed conditions, the preparation was introduced twice daily in a dose of 20 μl per animal, and all parameters where recorded. After the second week, the animals where fed ad libidum. No changes were made in the administration of the preparation and recordation of all parameters.
The experiments where conducted as in Example 1.

white mice = test: Soporific effect (sleep duration) after endonasal administration; assay type: in vivo, mouse; conditions: 60 mg/ml, n = 7
Excerpt: Investigated was the effect of phenobarbital in an endonasal administration on sexually mature white mice. Both the sedative and the soporific effect of the endonasal administration of phenobarbital without oxygen anion radicals were compared with the administration of the […]

rear paw of the rats = test: Randall-Selitto pain test, critical pressure (WKD) on the rear paw; assay type: in vivo, rat
Description: The anti-nociceptive and/or analgesic effect of promedol (trimeperidine) was investigated as a result of the endonasal administration of the combination H2O2+promedol. The experiments were conducted with (raceless) sexually mature white male rats. In a pain test, the value of the critical pressure (WKD) on the rear paw of the rats was measured. The controlled pressure on the paw was generated with an analgesimeter from the company Ugo Basile in form of the Randall-Selitto test.
Comparative results in relation to the composition of the invention include, on one hand, the intraperitoneal administration of promedol without the addition of oxygen anion radicals and, on the other hand, the intraperitoneal administration of promedol with addition of oxygen anion radicals by, on one hand, inhalation with the inhalation device described in DE 41 12 459 A1 and, on the other hand, by separate endonasal administration of a liquid hydrogen peroxide solution with a concentration of 10^−5 mole/l.
The administration according to the invention consisted of a mixture of xanthine-oxidase/xanthine and promedol in doses of 5, 2, 1, and 0.1 mg/kg bodyweight of the animals.

rats = test system: rats
Excerpt: It should be emphasized that dopamine is not capable of penetrating the blood-brain barrier when administered conventionally.

[1] = test system: patients with persistent or severe pain; test: Analgesic effect in patients with persistent or severe pain; assay type: in vivo, human
Excerpt: The enhancement of the therapeutic efficacy of the analgesic metamizol was investigated. A total of 5 volunteers participated in the observations. […] With all patients, the observations were made after six hours following the last administration of the pain therapy.

[2] = after administration of preparation, endonasal twice daily 20 μl per animal
[3] = before administration minus after administration (Table 4)
[4] = before administration of preparation
[5] = rats given haloperidol i/p (100 mg/kg), one-time endonasal, dopamine 0.125 mg/kg, L-arginine 10^-5 mole/l, H2O2 10^-6 mole/l

SMILES: N[C@@H](CCC(=O)O)C(=O)O [glutamic acid]
- LP, latent period between approach to the food and presentation of the food (white male rats; [2]): 36.3 ± 4.1 s
- Tfut., time for consuming the food (white male rats; [2]): 491.2 ± 9.4 s
- Change in LP (white male rats; [3]): 33.3 ± 13.1 s
- Change in Tfut. (white male rats; [3]): -77.2 ± 26.6 s
- Change in Ubr. (white male rats; [3]): 0.4 ± 0.6 s
- LP, latent period between approach to the food and presentation of the food (white male rats; [4]): 69.9 ± 15.9 s
- Tfut., time for consuming the food (white male rats; [4]): 414.0 ± 30.6 s

SMILES: CCC1(c2ccccc2)C(=O)NC(=O)NC1=O [phenobarbital]
- Sleep duration (white mice): 248.5 ± 22.2 min

SMILES: CCC(=O)OC1(c2ccccc2)CC(C)N(C)CC1C (stereo not drawn) [Promedol, trimeperidine]
- Lower dose of promedol giving prolonged and enhanced analgesic effect, endonasal form with oxygen anion radicals vs other administration methods (rear paw of the rats; endonasal composition compared to other administration methods): 10-50 times
- Nociception (critical pressure WKD) (rear paw of the rats; group II, 1.0 mg/kg i/p, 30 min after injection): 6.2 ± 1.9
- Nociception (critical pressure WKD) (rear paw of the rats; group II, 1.0 mg/kg i/p, 90 min after injection): 5.4 ± 1.4
- Nociception (critical pressure WKD) (rear paw of the rats; group II, 1.0 mg/kg i/p, 150 min after injection): 5.0 ± 1.2
- Nociception (critical pressure WKD) (rear paw of the rats; group II, 1.0 mg/kg i/p, 210 min after injection): 4.8 ± 0.9
- Initial value of nociception (critical pressure WKD) (rear paw of the rats; group II, 1.0 mg/kg i/p): 6.7 ± 0.9
- Nociception (critical pressure WKD) (rear paw of the rats; group III, 2.0 mg/kg i/p, 30 min after injection): 10.1 ± 1.1*)
- Nociception (critical pressure WKD) (rear paw of the rats; group III, 2.0 mg/kg i/p, 90 min after injection): 9.3 ± 1.0*)
- Nociception (critical pressure WKD) (rear paw of the rats; group III, 2.0 mg/kg i/p, 150 min after injection): 8.0 ± 1.1
- Nociception (critical pressure WKD) (rear paw of the rats; group III, 2.0 mg/kg i/p, 210 min after injection): 7.5 ± 0.9
- Initial value of nociception (critical pressure WKD) (rear paw of the rats; group III, 2.0 mg/kg i/p): 7.8 ± 1.6
- Nociception (critical pressure WKD) (rear paw of the rats; group IV, 5.0 mg/kg i/p, 30 min after injection): 11.0 ± 1.0**)
- Nociception (critical pressure WKD) (rear paw of the rats; group IV, 5.0 mg/kg i/p, 90 min after injection): 9.8 ± 1.3**)
- Nociception (critical pressure WKD) (rear paw of the rats; group IV, 5.0 mg/kg i/p, 150 min after injection): 8.3 ± 1.7*)
- Nociception (critical pressure WKD) (rear paw of the rats; group IV, 5.0 mg/kg i/p, 210 min after injection): 6.7 ± 1.0
- Initial value of nociception (critical pressure WKD) (rear paw of the rats; group IV, 5.0 mg/kg i/p): 6.4 ± 0.7
- Nociception (critical pressure WKD) (rear paw of the rats; group V, 1.0 mg/kg i/p + O2- inhalation, 30 min): 8.1 ± 3.6*)
- Nociception (critical pressure WKD) (rear paw of the rats; group V, 1.0 mg/kg i/p + O2- inhalation, 90 min): 8.1 ± 2.3**)
- Nociception (critical pressure WKD) (rear paw of the rats; group V, 1.0 mg/kg i/p + O2- inhalation, 150 min): 9.6 ± 5.0**)
- Nociception (critical pressure WKD) (rear paw of the rats; group V, 1.0 mg/kg i/p + O2- inhalation, 210 min): 5.8 ± 2.3
- Initial value of nociception (critical pressure WKD) (rear paw of the rats; group V, 1.0 mg/kg i/p + O2- inhalation): 6.9 ± 1.6
- Nociception (critical pressure WKD) (rear paw of the rats; group VI, 1.0 mg/kg i/p + separate endonasal H2O2-administration, 30 min): 8.4 ± 2.8*)
- Nociception (critical pressure WKD) (rear paw of the rats; group VI, 1.0 mg/kg i/p + separate endonasal H2O2-administration, 90 min): 8.7 ± 2.0**)
- Nociception (critical pressure WKD) (rear paw of the rats; group VI, 1.0 mg/kg i/p + separate endonasal H2O2-administration, 150 min): 8.6 ± 2.7**)
- Nociception (critical pressure WKD) (rear paw of the rats; group VI, 1.0 mg/kg i/p + separate endonasal H2O2-administration, 210 min): 7.3 ± 2.2
- Initial value of nociception (critical pressure WKD) (rear paw of the rats; group VI, 1.0 mg/kg i/p + separate endonasal H2O2-administration): 7.1 ± 1.8

SMILES: O=C(CCCN1CCC(O)(c2ccc(Cl)cc2)CC1)c1ccc(F)cc1 [Haloperidol]
- Total spontaneous activity (Number of measurable movements) (rats; haloperidol i/p alone (100 mg/kg bodyweight), unharmed control 35 ± 8): 3 ± 3 ^##)

SMILES: Cc1c(N(C)CS(=O)(=O)O)c(=O)n(-c2ccccc2)n1C [metamizol]
- Analgesic efficacy in all patients ([1]; endonasally, dose of 10 mg, without addition of oxygen anion radicals): not effective
- Analgesic efficacy in all patients ([1]; per os, dose of 500 mg): not effective

SMILES: NCCc1ccc(O)c(O)c1 [Dopamine, dopamine]
- Total spontaneous activity (Number of measurable movements) (rats; [5]): 2 ± 1.7 ^##)

SMILES: OO [H2O2, hydrogen peroxide]
- Total spontaneous activity (Number of measurable movements) (rats; [5]): 3 ± 1.9 ^##)
